This note sets out measurements from patent US11530196B2, “Pyrimidine compound acting on EGFR and ERBB2” (CHINA RESOURCES PHARMACEUTICAL HOLDINGS COMPANY LIMITED, priority 2019, dated 2022).

In general, AUC refers to the area under the concentration-time curve, a measure of exposure. As usually defined, the bioavailability is the share of a dose that reaches the circulation, judged against a reference dose that is usually intravenous.

Where two headings read alike, the source gives them in different places.

A short description of data set [1]: Compound stability test in plasma (human). The data set is classed as in vitro ADME. As to the method: (§1) In this study, mouse, SD rat, Beagle, cynomolgus monkey and human plasma were used as materials to investigate the stability of the tested compounds in the plasma of the above five species. Propantheline, Enalapril, Bisacodyl and Procaine were used as control compounds.
(§2) The experimental conditions for the test compounds were as follows: • test concentration: 2 μM (DMSO ≤0.5%); • incubation times: 0, 10, 30, 60 and 120 minutes; • frozen plasma (from multiple species) was used in the test system; • incubation conditions: 37° C.
(§3) The mixed frozen plasma was thawed in a 37° C. water bath prior to the experiment. Plasma was centrifuged at 4000 rpm for 5 minutes and cleared if there was a clot. The pH will be adjusted to 7.4±0.1 if required.
(§4) The intermediate solution of 1 mM compound and positive control was prepared by diluting 10 mM stock solution with 90 μL of dimethyl sulfoxide. 100 μM solution was prepared by diluting 20 μL of intermediate solution (1 mM) with 180 μL of 45% methanol/water.
(§5) 2 μL of 100 μM solution was added to 98 μL of blank plasma to achieve a final concentration of 2 μM (in duplicate) of the sample, and the sample was incubated in a 37° C. water bath. At each time point (0, 10, 30, 60 and 120 min), 400 μL of termination solution (200 ng/mL toluenesulfonylurea and 200 ng/mL labetalol, 50% ACN/MeOH) was added to precipitate the proteins and mixed thoroughly. […]

Data set [2] in a line: Compound stability test in plasma (dog). The data set is classed as in vitro ADME, Beagle. As to the method:
as §1, §2, §3, §4, §5

Data set [3] in a line: Pharmacokinetic study, single intravenous and oral administration in Beagle dogs. Format: in vivo. To be noted: dog, plasma; for AUC(0-t): read-out: Exposure of AUC0-last. As to the method:
The purpose of this experiment was to investigate the pharmacokinetics (PK) of the compounds in different species after single intravenous and single oral administration of the test compounds.
After intravenous or oral administration, blood samples were collected from the animals, and the actual time of blood collection was recorded. After the blood samples were collected, the samples were immediately transferred to the labelled centrifuge tube containing K2-EDTA, and then centrifuged to obtain plasma. Plasma was transferred to pre-cooled centrifuge tubes, quick-frozen in dry ice and stored in an ultra-low temperature refrigerator at −70±10° C. until LC-MS/MS analysis was performed.
The plasma drug concentration data of the compounds were processed using pharmacokinetic software with a non-compartmental model. The peak concentration (Cmax) and time to peak (Tmax), as well as the quantifiable end time were obtained directly from the plasma concentration-time curve. The following pharmacokinetic parameters were calculated using the log-linear trapezoidal method: half-life (T1/2), apparent volume of distribution (Vdss), and clearance (Cl), area under the time-plasma concentration curve from point 0 to the end time point (AUC0-last), and initial concentration (C0).

Data set [4] deals with Ba/F3 EGFR-V769_D770insASV (Homo sapiens, UniProt P00533, DUP767-769, cells depend on it). The data set can be described thus: Anti-proliferation against Ba/F3 exon 20 insertion mutant cells (ASV). Format: cell-based, mouse. The note with it: CTG, 72 hours, read-out: Mutant cells IC50 (anti-proliferation). The text has this: RPMI1640 medium was purchased from Hyclone, FBS fetal bovine serum was purchased from GBICO, and trypsin-EDTA were both purchased from Giboco. DPBS was purchased from Corning, penicillin/streptomycin solution was purchased from Hyclone, and Cell-Titer Glo reagent was purchased from Promega (Cat. No. G7572). Ba/F3 EGFR-D770_N771insSVD, Ba/F3 EGFR-H773_V774insNPH, Ba/F3 EGFR-V769_D770insASV, BaF3 ERBB2 A775_G776 ins YVMA, the cell lines were constructed by Beijing Kang Yuan Bochuang Biotechnology Co., Ltd. Plate reading instrument: Envision (PerkinElmer).
Ba/F3 EGFR-V769_D770insASV, sequence (P00533 with tags, fused parts or gaps DUP767-769): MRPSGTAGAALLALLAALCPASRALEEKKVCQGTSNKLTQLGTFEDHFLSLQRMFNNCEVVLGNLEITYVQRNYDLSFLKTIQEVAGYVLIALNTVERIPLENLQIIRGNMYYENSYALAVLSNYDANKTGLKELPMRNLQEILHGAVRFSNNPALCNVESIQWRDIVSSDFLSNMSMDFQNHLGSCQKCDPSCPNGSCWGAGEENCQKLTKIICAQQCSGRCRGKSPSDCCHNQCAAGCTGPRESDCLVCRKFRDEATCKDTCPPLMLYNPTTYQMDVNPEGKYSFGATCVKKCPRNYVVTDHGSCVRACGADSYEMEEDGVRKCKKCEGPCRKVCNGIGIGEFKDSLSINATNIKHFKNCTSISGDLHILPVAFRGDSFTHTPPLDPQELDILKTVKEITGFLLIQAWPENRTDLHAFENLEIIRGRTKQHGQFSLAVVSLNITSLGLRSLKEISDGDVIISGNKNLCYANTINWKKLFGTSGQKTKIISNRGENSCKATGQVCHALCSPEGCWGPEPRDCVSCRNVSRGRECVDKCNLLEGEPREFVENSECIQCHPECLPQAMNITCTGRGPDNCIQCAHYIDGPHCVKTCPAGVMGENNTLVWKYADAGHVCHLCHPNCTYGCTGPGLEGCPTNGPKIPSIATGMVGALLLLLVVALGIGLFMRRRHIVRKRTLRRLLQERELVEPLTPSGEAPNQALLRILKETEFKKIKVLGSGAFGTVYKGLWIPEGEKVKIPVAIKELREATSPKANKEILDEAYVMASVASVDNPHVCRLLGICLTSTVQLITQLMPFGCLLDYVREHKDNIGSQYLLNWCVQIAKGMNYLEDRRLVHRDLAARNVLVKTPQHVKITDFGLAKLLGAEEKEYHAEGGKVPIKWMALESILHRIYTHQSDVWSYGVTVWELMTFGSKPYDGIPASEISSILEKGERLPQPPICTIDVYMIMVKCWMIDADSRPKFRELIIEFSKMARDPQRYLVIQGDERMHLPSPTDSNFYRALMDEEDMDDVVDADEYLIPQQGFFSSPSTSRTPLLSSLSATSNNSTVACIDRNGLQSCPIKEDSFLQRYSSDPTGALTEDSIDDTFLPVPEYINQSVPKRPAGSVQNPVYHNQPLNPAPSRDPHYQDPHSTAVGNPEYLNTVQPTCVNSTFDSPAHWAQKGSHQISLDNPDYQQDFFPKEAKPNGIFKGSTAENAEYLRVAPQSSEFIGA
Cells in logarithmic growth phase were harvested and cell counts were performed using a […]. Cell viability was detected by the Taipan Blue rejection assay. The cell concentration was adjusted; the cell suspension was added to a 96-well plate separately. Cells in 96-well plates were incubated overnight at 37° C., 5% CO2, and 95% humidity. […] The cell plate was placed at room temperature to stabilize the cold light signal, and the cold light values were read. The data were analyzed using GraphPad Prism 7.0 software, and a nonlinear S-curve regression was used to fit the data to derive the dose-effect curve from which the IC50 values were calculated. […]

Data set [5] is described as follows: Compound stability test in plasma (mouse). The data set is classed as in vitro ADME. As to the method: as §1, §2, §3, §4, §5
Where [6] appears, read: pH 7.4, 37° C., read-out: In vitro plasma half-life T1/2.

For the compound `C=CC(=O)Nc1cc(Nc2ncc(C(=O)OC(C)C)c(-c3cn(OC)c4ccccc34)n2)c(OC)cc1N(C)CCN(C)C.CS(=O)(=O)O` [Compound 1], the “In vitro plasma stability (Residual percentage)” value in data set [1] (120 minutes, 2 μM, 37° C.) amounted to 19%; in data set [2] (120 minutes, 2 μM, 37° C.) it was 101.7%; in data set [5] (120 minutes, 2 μM, 37° C.), 45%. Further, the half-life at 2 µM is 0.86 h in data set [1] (setting [6]); greater than 4.82 h in data set [2] (beagle, pH 7.4, 37° C., read-out: In vitro plasma half-life T1/2); 1.81 h in data set [5] (setting [6]). Besides, the clearance in data set [3] (intravenous injection 2 mg/kg) amounted to 12.7 mL/min/kg. In addition, the half-life in data set [3] (intravenous injection 2 mg/kg) is 8.79 h. In addition, the AUC in data set [3] (intravenous injection 2 mg/kg, read-out: Exposure of AUC) is 3.85 µM·h. In addition, the Vd in data set [3] (intravenous injection 2 mg/kg, read-out: Vdss) is 7.98 L/kg. Moreover, the bioavailability in data set [3] (oral 10 mg/kg) stood at 53.5%; in data set [3] (oral 50 mg/kg) it was 36.6%. The AUC(0-t) in data set [3] (oral 10 mg/kg) was 10.3 µM·h; in data set [3] (oral 50 mg/kg), 35.3 µM·h. Also, in data set [4], the GI50 turned out to be 7 nM.
